Laboratory results as given in patent US4753953A, “Pyridonecarboxylic acid derivatives and antibacterial pharmaceutical compositions thereof” (priority 1985, dated 1988).
In brackets after ≈: the same amount, converted by molar mass. Read-outs that look alike come from different tables or passages of the source.

What was measured:
C. perfringens KYA 13123 = test: microbe, parasite or virus in culture; type: cell-based; conditions: Clostridium perfringens, KYA13123
S. aureus Smith = test: MIC, in vitro antibacterial activity (standard strains); type: cell-based, Staphylococcus aureus; conditions: Staphylococcus aureus; 10^6 cells/ml; Gram +; read-out: MIC
[1] = test system: Streptococcus pyogenes (S-8); test: as above; type: cell-based; conditions: Streptococcus pyogenes; 10^6 cells/ml; Gram +; read-out: MIC
[2] = test system: Propionibacterium acens 11828; test: as above; type: cell-based; conditions: Propionibacterium, 11828; 10^6 cells/ml; Gram +; read-out: MIC
S. epidermidis IID 866 = test: as above; type: cell-based; conditions: Staphylococcus epidermidis, IID866; 10^6 cells/ml; Gram +; read-out: MIC
[3] = test system: Alcaligenes faecalis 0114002; test: as above; type: cell-based; conditions: Alcaligenes faecalis, 0114002; 10^6 cells/ml; Gram -; read-out: MIC
E. faecalis IID 682 = test: as above; type: cell-based; conditions: Enterococcus faecalis, IID682; 10^6 cells/ml; Gram +; read-out: MIC
[4] = test system: Acinetobacter anitratus IID 876; test: as above; type: cell-based; conditions: Acinetobacter calcoaceticus, IID876; 10^6 cells/ml; Gram -; read-out: MIC
E. coli ML 4707 = test: as above; type: cell-based, Escherichia coli; conditions: Escherichia coli, ML4707, 10^6 cells/ml; Gram -; Table 1; read-out: MIC
[5] = test system: Staphylococcus aureus 209 P; test: as above; type: cell-based; conditions: Staphylococcus aureus, 209P; 10^6 cells/ml; Gram +; read-out: MIC
[6] = test system: Bacillus subtilis PCI 219; test: as above; type: cell-based; conditions: Bacillus subtilis, PCI219; 10^6 cells/ml; Gram +; read-out: MIC
E. coli ATCC 10536 = test: as above; type: cell-based, Escherichia coli; conditions: Escherichia coli, ATCC10536; 10^6 cells/ml; Gram -; read-out: MIC
[7] = test system: Clostridium difficile I-E; test: as above; type: cell-based; conditions: Clostridioides difficile; 10^6 cells/ml; Gram +
S. pneumoniae IID 552 = test: as above; type: cell-based; conditions: Streptococcus pneumoniae, IID552; 10^6 cells/ml; Gram +; read-out: MIC
C. ramosum = test: as above; type: cell-based; conditions: Thomasclavelia ramosa; 10^6 cells/ml; Gram +; read-out: MIC
[8] = test system: Veillonella parvula KYA 10790; test: as above; type: cell-based; conditions: Veillonella parvula, KYA10790; 10^6 cells/ml; Gram -; read-out: MIC
[9] = test system: Fusobacterium mortiferum 4249; test: as above; type: cell-based; conditions: Fusobacterium mortiferum, 4249; 10^6 cells/ml; Gram -; read-out: MIC
K. pneumoniae 1-220S = test: as above; type: cell-based, Klebsiella pneumoniae; conditions: Klebsiella pneumoniae, 1220S; 10^6 cells/ml; Gram -; read-out: MIC
[10] = test system: Bacteroides fragilis GM 7000; test: as above; type: cell-based; conditions: Bacteroides fragilis, GM7000; 10^6 cells/ml; Gram -; read-out: MIC
[11] = test system: Citrobacter freundii IID 976; test: as above; type: cell-based; conditions: Citrobacter freundii, IID976; 10^6 cells/ml; Gram -; read-out: MIC
B. fragilis 25285 = test: as above; type: cell-based, Bacteroides fragilis; conditions: Bacteroides fragilis, 25285; 10^6 cells/ml; Gram -; read-out: MIC
[12] = test system: Proteus vulgaris IFO 3167; test: as above; type: cell-based; conditions: Proteus vulgaris, IFO3167; 10^6 cells/ml; Gram -; read-out: MIC
[13] = test system: Pseudomonas aeruginosa V-1; test: as above; type: cell-based; conditions: Pseudomonas aeruginosa, V1; 10^6 cells/ml; Gram -; read-out: MIC
[14] = test system: Peptostreptococcus anaerobius KYA 27337; test: as above; type: cell-based; conditions: Peptostreptococcus anaerobius, KYA27337; 10^6 cells/ml; Gram +; read-out: MIC
Shigella sonnei IID 969 = test: as above; type: cell-based; conditions: Shigella sonnei, IID969; 10^6 cells/ml; Gram -; read-out: MIC
Experimental: Minimal inhibitory concentrations (MICs) were determined in accordance with the method recommended by Japan Society of Chemotherapy.

B. fragilis 0558 = test: as above; type: cell-based, Bacteroides fragilis; conditions: Bacteroides fragilis, 0558; 10^6 cells/ml; Gram -; read-out: MIC
E. limosum KYA 8486 = test: as above; type: cell-based; conditions: Eubacterium limosum, KYA8486; 10^6 cells/ml; Gram +; read-out: MIC
F. necrophorum S-45 = test: as above; type: cell-based; conditions: Fusobacterium necrophorum, S45; 10^6 cells/ml; Gram -; read-out: MIC
P. cepacia GIFU 518 = test: as above; type: cell-based; conditions: Burkholderia cepacia, GIFU518
F. varium KYA 8501 = test: as above; type: cell-based; conditions: Fusobacterium varium, KYA8501; 10^6 cells/ml; Gram -; read-out: MIC
[15] = test system: Salmonella enteritidis IID 604; test: as above; type: cell-based; conditions: Salmonella enterica; 10^6 cells/ml; Gram -; read-out: MIC
[16] = test system: Yersinia enterocolitica IID 981; test: as above; type: cell-based; conditions: Yersinia enterocolitica, IID981; 10^6 cells/ml; Gram -; read-out: MIC
B. distasonis 8503 = test: as above; type: cell-based; conditions: Parabacteroides distasonis, 8503; 10^6 cells/ml; Gram -; read-out: MIC

SMILES | MIC (C. perfringens KYA 13123) | MIC (S. aureus Smith) | MIC [1] | MIC [2] | MIC (S. epidermidis IID 866) | MIC [3] | MIC (E. faecalis IID 682) | MIC [4] | MIC (E. coli ML 4707) | MIC [5] | MIC [6] | MIC (E. coli ATCC 10536) | MIC [7] | MIC (S. pneumoniae IID 552) | MIC (C. ramosum) | MIC [8] | MIC [9] | MIC (K. pneumoniae 1-220S) | MIC [10] | MIC [11] | other results
C[C@H]1CN(c2c(F)cc3c(=O)c(C(=O)O)cn4c3c2OC[C@@H]4C)C[C@H]1N.Cl (mixture of isomers) [Example 31, (3S)-10-(cis-3-Amino-4-methyl-1-pyrrolidinyl)-9-fluoro-2,3-dihydro-3-methyl-7-oxo-7H-pyrido[1,2,3-de][1,4]benzoxazine-6-carboxylic acid hydrochloride] | 0.2 µg/mL | 0.2 µg/mL | 0.2 µg/mL | 6.25 µg/mL | 0.2 µg/mL | 0.39 µg/mL | 0.2 µg/mL | 1.56 µg/mL | 0.025 µg/mL | 0.2 µg/mL | 0.05 µg/mL | 0.025 µg/mL | 3.13 µg/mL | 0.2 µg/mL | 6.25 µg/mL | 0.2 µg/mL | 0.39 µg/mL | 0.1 µg/mL | 1.56 µg/mL | 0.05 µg/mL | MIC (B. fragilis 25285): 0.78 µg/mL; MIC [12]: 0.1 µg/mL; MIC [13]: 0.39 µg/mL; MIC [14]: 0.39 µg/mL; MIC (Shigella sonnei IID 969): 0.05 µg/mL; MIC (B. fragilis 0558): 0.78 µg/mL; MIC (E. limosum KYA 8486): 3.13 µg/mL; MIC (F. necrophorum S-45): 0.39 µg/mL; MIC (P. cepacia GIFU 518; 10^6 cells/ml, Gram -, read-out: MIC): 1.56 µg/mL; MIC (F. varium KYA 8501): 3.13 µg/mL; MIC [15]: 0.1 µg/mL; MIC [16]: 0.1 µg/mL
CCNCC1CN(c2c(F)cc3c(=O)c(C(=O)O)cn(C4CC4)c3c2F)CC1C (centres unmarked) [Example 15, 1-Cyclopropyl-7-(3-ethylaminomethyl-4-methyl-1-pyrrolidinyl)-6,8-difluoro-1,4-dihydro-4-oxo-3-quinolinecarboxylic acid] | 0.1 µg/mL (≈ 0.247 µM) | 0.05 µg/mL (≈ 0.123 µM) | 0.1 µg/mL (≈ 0.247 µM) | 3.13 µg/mL (≈ 7.72 µM) | 0.05 µg/mL (≈ 0.123 µM) | 0.78 µg/mL (≈ 1.92 µM) | 0.1 µg/mL (≈ 0.247 µM) | 0.1 µg/mL (≈ 0.247 µM) | 0.05 µg/mL (≈ 0.123 µM) | 0.05 µg/mL (≈ 0.123 µM) | 0.025 µg/mL (≈ 0.0617 µM) | 0.05 µg/mL (≈ 0.123 µM) | 0.78 µg/mL | 0.1 µg/mL (≈ 0.247 µM) | 0.78 µg/mL (≈ 1.92 µM) | 0.78 µg/mL (≈ 1.92 µM) | 0.39 µg/mL (≈ 0.962 µM) | 0.2 µg/mL (≈ 0.493 µM) | 0.78 µg/mL (≈ 1.92 µM) | 0.1 µg/mL (≈ 0.247 µM) | MIC (B. distasonis 8503): 3.13 µg/mL (≈ 7.72 µM); MIC (B. fragilis 25285): 0.39 µg/mL (≈ 0.962 µM); MIC [12]: 0.1 µg/mL (≈ 0.247 µM); MIC [13]: 0.78 µg/mL (≈ 1.92 µM); MIC [14]: 0.2 µg/mL (≈ 0.493 µM); MIC (Shigella sonnei IID 969): 0.05 µg/mL (≈ 0.123 µM); MIC (B. fragilis 0558): 0.39 µg/mL (≈ 0.962 µM); MIC (E. limosum KYA 8486): 1.56 µg/mL (≈ 3.85 µM); MIC (F. necrophorum S-45): 0.39 µg/mL (≈ 0.962 µM); MIC (P. cepacia GIFU 518): 0.78 µg/mL (≈ 1.92 µM); MIC (F. varium KYA 8501): 1.56 µg/mL (≈ 3.85 µM); MIC [15]: 0.2 µg/mL (≈ 0.493 µM); MIC [16]: 0.2 µg/mL (≈ 0.493 µM)
